The assay deals with common lambsquarters. Kind of assay: Field trial Zellwood, Fla.: damage rating on common lambsquarters, sprayed until runoff. Type of assay: in vivo. The following applies: commercial burn down standard; improved by Day 3. On the procedure:
FIG. 7 is a bar graph setting forth results from a field study on lambsquarters conducted in Florida in January of 2005. Ratings are based on 0 to 10 (no damage to dead). Statistical analysis is by Duncan's MRT (P<0.05).
A field trial was conducted in Zellwood, Fla. The same formulation described in Example 1 was used in the Florida trial. All limonene treatments were made at a 3:1 ratio by volume, represented as water:herbicide formulation ratio, to provide a herbicide composition of 22% limonene (w/w %). Four reps per treatment were used; all treatments were randomly distributed within a rep. The weed species was common lambsquarters (1 to 2 feet in height). Treatments applied were pH 3, 7, 8 and 9 with and without a silicone surfactant, Silwet; each treatment was sprayed until runoff. The commercial burn down standard, Gramoxone (Paraquat) was included. Readings were taken at 1 and 2 hours, and 1, 3 and 7 days. […] Effects with Gramoxone (Paraquat) were first observed on day 1 and improved by Day 3. After the first 2 hours limonene effects were stabilized.

Turning to `C[n+]1ccc(-c2cc[n+](C)cc2)cc1` [Gramoxone, Paraquat], the effects first observed worked out at 1 days.

Source of the values: patent US8153561B2, “Limonene-containing herbicide compositions, herbicide concentrate formulations and methods for making and using same for organic production” (Cutting Edge Formulations, Inc., priority 2005, dated 2012).
